Source: article PMC12679539, “Synthesis and evaluation of nitroheterocyclic aromatic adamantane amides with trypanocidal activity. Part II” (RSC Medicinal Chemistry, 2025)
Each block holds one compound with its values, some of them ahead of it.

Assays:
[1] = Cytotoxicity on THP-1-derived macrophages (MTT assay); assay type: cell-based; settings: human, THP-1-derived macrophages (PMA-differentiated), value or interval
Experimental: The THP-1 cell line, a human leukemia line (ATCC® TIB-202™), was cultured in RPMI-1640 medium supplemented with 10% heat-inactivated fetal bovine serum (FBS), 2 mM. L-Glutamine, 100 IU mL^−1 penicillin/streptomycin, and 20 mM HEPES. The cells were maintained in a humidified incubator at 37 °C with 5% CO2. Subculturing was performed every three days, using 20 mL of media at a concentration of 2 × 10^5 cells per mL in a T75 flask. All cell culture reagents were purchased from Lonza Bioscience (Morrisville, NC).
The cytotoxicity of the compounds on THP-1-derived macrophages was evaluated using the colorimetric MTT assay (3-(4,5-dimethylthiazol-2-yl)-2,5-diphenyltetrazolium bromide), as described in Magoulas et al. (2021).[28] THP-1 cells were suspended in complete RPMI medium at a density of 1 × 10^6 cells per mL, and 100 μL of this suspension was seeded into each well of a 96-well plate. The cells were differentiated into macrophages by adding 40 ng mL^−1 of phorbol-myristate 13-acetate (PMA, Sigma, Saint Louis, MI, USA) for 24 hours, followed by replacement with fresh medium for an additional 24 hours. Subsequently, the cells were incubated with 100 μL of various compounds, diluted in complete RPMI medium, at concentrations ranging from 100 to 12.5 μM. Each condition was tested in triplicate. After 72 hours of incubation at 37 °C with 5% CO2, the medium was removed, and 200 μL of a 0.5 mg mL^−1 MTT solution, diluted in RPMI, was added to each well. The plates were incubated for an additional 4 hours. Following this incubation, 160 μL of the medium was removed and replaced with 160 μL of 2-propanol. Absorbance was measured at 570 nm using a Synergy 2 Multi-Mode Reader (Biotek, Winooski, VT, USA). Cytotoxicity was determined by presenting the CC50 (the concentration of the drug that reduces cell viability by 50%) interval or by calculating the CC50 value through non-linear regression analysis using GraphPad Prism version 8.1.1 for Windows (GraphPad Software, San Diego, CA, USA). The results represent the average of at least three independent experiments.

[2] = system: L. infantum promastigotes; assay: Activity against Leishmania infantum promastigotes (resazurin assay); assay type: cell-based, Leishmania infantum (MHOM/MA/67/ITMAP-263); settings: for IC50: Leishmania infantum, promastigotes, 72 h, 95% CI in brackets
Experimental: Promastigotes from the L. infantum strain (MHOM/MA/67/ITMAP-263) were cultivated in 5 ml of Schneider's insect medium, which was supplemented with 10% heat-inactivated fetal bovine serum (FBS), 200 U ml^−1 of penicillin/streptomycin, 6 μg ml^−1 of phenol red, and 5 mM of HEPES. The cultures were maintained in an incubator at 27 °C and diluted to a concentration of 2 × 10^5 cells per ml every 5 days. For the assays the parasites used were equivalent to late/log with two or three days of culture.
The efficacy of the compounds against L. infantum promastigotes was evaluated using a resazurin-based assay. Parasites were added to 100 μl of serial dilutions of the compounds in supplemented complete medium at a cell density of 5 × 10^5 ml^−1. As a quality control, a dose–response curve with the antileishmanial drug miltefosine was included in all assays. The final volume of each assay was 200 μl per well, and each condition was tested in duplicate. After a 72-hour incubation under specific conditions for each parasite, 20 μl of a 0.5 mM resazurin solution was added, and the plates were incubated for an additional 4 hours under the same conditions. Fluorescence was measured at 544 nm for excitation and 590 nm for emission using a Synergy 2 Multi-Mode Reader (Biotek, Winooski, VT, USA). Results were expressed as the percentage of parasite growth inhibition compared to controls (untreated parasites) and represent the average of at least three independent experiments. The effect was evaluated by determining the IC50 value (the concentration required to inhibit 50% growth), calculated using non-linear regression curves via GraphPad Prism version 8.1.1 for Windows (GraphPad Software, San Diego, CA, USA).

[3] = system: bloodstream-form Trypanosoma brucei; assay: Activity against bloodstream-form Trypanosoma brucei (Alamar Blue growth inhibition); assay type: cell-based, Trypanosoma brucei (strain 427); settings: for IC50 / IC90: Trypanosoma brucei, bloodstream form; for IC50: concentration that inhibits growth by 50%, read-out: T. brucei IC50; for IC90: concentration that inhibits growth by 90%, read-out: T. brucei IC90; for S.I. (selectivity index): ratio of IC50 values obtained with L6 cells and T. brucei
Experimental: (§1) Bloodstream form T. brucei (strain 427) were cultured at 37 °C in modified Iscove's medium. Trypanocidal activity was assessed by growing parasites in microtiter plates in the presence of various drug concentrations. […] The plates were incubated for 48 hours at 37 °C and 20 μL Alamar Blue was then added to each well. After an additional overnight incubation, the fluorescence was determined using a Gemini fluorescent plate reader (Molecular Devices). Inhibition of growth was calculated by comparison with control values and IC50 and IC90 values were determined in triplicate using linear regression analysis.

[4] = system: L6 cells; assay: Cytotoxic activity against rat skeletal myoblast L6 cells (Alamar Blue); assay type: cell-based; settings: 120 h, cytotoxicity, 5 days
Experimental: The cytotoxicity against mammalian cells was assessed using microtitre plates. Briefly, L6 cells (a rat skeletal muscle line) were seeded at 1 × 10^4 mL^−1 in 200 μL of RPMI-1640 growth medium (with 10% fetal calf serum) containing 7 different compound concentrations in a range previously established to encompass both the IC50 and IC90 values. The plates were incubated for 5 days at 37 °C and 20 μL Alamar Blue (Biosource Ltd, Wilton, North Yorkshire England.) was then added to each well. After an additional 8 hours incubation, the fluorescence was determined using a Gemini fluorescent plate reader (Molecular Devices). Inhibition of growth was calculated by comparison with control values and IC50 and IC90 values were determined in triplicate using linear regression analysis.

[5] = system: T. cruzi epimastigotes; assay: Activity against Trypanosoma cruzi epimastigotes (Alamar Blue growth inhibition); assay type: cell-based, Trypanosoma cruzi (strain CL Brener); settings: CL Brener
Experimental: as §1, with “Trypanocidal” for “Bloodstream form T. brucei (strain 427) were cultured at 37 °C in modified Iscove's medium. Trypanocidal”, “4 days” for “48 hours”, “28” for “37”, “Blue (Biosource UK Ltd)” for “Blue”, “3 days” for “overnight”

[6] = system: T. cruzi intracellular amastigotes; assay: microbe, parasite or virus in culture; assay type: cell-based, Trypanosoma cruzi CL Brener PpyRE9h:mScarlet; settings: Trypanosoma cruzi, 120 h; in HeLa cells, 5 days
Experimental: Assays were performed in 96-well black (clear bottom) microtitre plates (Corning Inc.). HeLa ^† cells were seeded at 10^4 per well, incubated for 3 days, and then infected with T. cruzi CL Brener PpyRE9h : mScarlet[25] culture form trypomastigotes (1 : 1 multiplicity of infection). After 16 hours, extracellular parasites were removed by washing in growth medium (×3), test compounds were added, and the plates incubated for 5 days. Fluorescence intensities were then determined using a BMG FLUOstar Omega plate reader (ex 545 nm, em 590 nm), and the data analysed using GraphPad Prism 9.0 software. The values were expressed as IC50/90 ± SD and are the mean of triplicate experiments.

Compound: O=C(NCCc1ccc(C23CC4CC(CC(C4)C2)C3)cc1)c1ccc([N+](=O)[O-])o1 [1b]
CC50 at 72 h [1]: 50 to 100 µM
IC50 [2]: 0.66 µM

Compound: O=C(Cn1cnc([N+](=O)[O-])n1)Nc1ccc(C23CC4CC(CC(C4)C2)C3)cc1 [7b, N-[4-(1-Adamantyl)phenyl]-2-(3-nitro-1H-1,2,4-triazol-1-yl)acetamide]
IC50 [3]: 0.2 ± 0.07 µM
IC90 [3]: 0.91 ± 0.19 µM
S.I. (selectivity index) [3]: 35
IC50 [4]: 7.1 ± 0.3 µM

Compound: O=C(Cn1ccnc1[N+](=O)[O-])Nc1ccc(C23CC4CC(CC(C4)C2)C3)cc1 [3a, N-[4-(1-Adamantyl)phenyl]-2-(2-nitro-1H-imidazol-1-yl)acetamide]
CC50 at 72 h [1]: 25 to 100 µM
IC50 [2]: 0.7 µM

Compound: O=C(NCc1ccc(C23CC4CC(CC(C4)C2)C3)cc1)c1ccc([N+](=O)[O-])o1 [1a]
CC50 at 72 h [1]: > 100 µM
IC50 [2]: 3.46 µM
SI (promastigotes) CC50/Li IC50 ([2]; THP-1 CC50 / L. infantum promastigote IC50): SI > 29

Compound: O=C(Cn1cnc([N+](=O)[O-])n1)Nc1ccccc1C12CC3CC(CC(C3)C1)C2 [7c, N-[2-(1-Adamantyl)phenyl]-2-(3-nitro-1H-1,2,4-triazol-1-yl)acetamide]
IC50 [3]: > 25 µM
IC90 [3]: > 25 µM
IC50 [5]: > 25 µM
IC90 [5]: > 25 µM

Compound: O=C(NCCCn1cnc([N+](=O)[O-])n1)c1ccc(C23CC4CC(CC(C4)C2)C3)cc1 [6d, 4-(1-Adamantyl)-N-[3-(3-nitro-1H-1,2,4-triazol-1-yl)propyl] benzamide]
CC50 at 72 h [1]: 50 to 100 µM
IC50 [6]: 3.73 ± 0.44 µM
IC90 [6]: 8.42 ± 0.44 µM
IC50 [3]: 0.18 ± 0.05 µM
IC90 [3]: 0.31 ± 0.04 µM
S.I. (selectivity index) [3]: 123
IC50 [2]: 0.27 µM
IC50 [5]: 0.45 ± 0.01 µM
IC90 [5]: 1.1 ± 0.02 µM
IC50 [4]: 22 ± 1 µM

IC50 [3]: 2.4 ± 0.2 µM
Compound: CSc1ccc(OCc2ncc([N+](=O)[O-])n2C)cc1 [Fxd, fexinidazole, reference compound]

Compound: O=C(Cc1ccc(C23CC4CC(CC(C4)C2)C3)cc1)NCCn1ccnc1[N+](=O)[O-] [5a, 2-[4-(1-Adamantyl)phenyl]-N-[2-(2-nitro-1H-imidazol-1-yl)ethyl] acetamide]
CC50 at 72 h [1]: 25 to 50 µM
IC50 [2]: 3.48 µM

Compound: O=C(Cn1ccnc1[N+](=O)[O-])NCCc1ccc(C23CC4CC(CC(C4)C2)C3)cc1 [3c, N-[4-(1-Adamantyl)phenethyl]-2-(2-nitro-1H-imidazol-1-yl) acetamide]
CC50 at 72 h [1]: 50 to 100 µM
IC50 [2]: 22.1 µM
